pIC50: −log10 of the molar value. Where “and” joins values, the source holds several entries; their conditions need not be identical. Identical values can stand only once. Like-named read-outs stand apart in the source and are kept apart here.

The text below walks through data of article PMC11440035, “Interaction of myricetin, ampelopsin (dihydromyricetin), and their sulfate metabolites with serum albumin, cytochrome P450 (CYP2C9, 2C19, and 3A4) enzymes, and organic anion‐transporting polypeptides (OATP1B1 and OATP2B1)” (Pharmacology Research & Perspectives, 2024).

Data set [1] concerns T1, human serum albumin (HSA).
T1 construct: purchased Merck (Darmstadt, Germany) A1653
The data set is described as follows: Ultrafiltration: displacement of the Site I marker warfarin from HSA. Format: binding. The conditions noted are these: flavonoid 20 μM, warfarin 1 μM, HSA 5 μM, PBS pH 7.4. The procedure:
The impacts of MYR, M3′S, AMP, and A4′S on the albumin‐bound fraction of the Site I marker warfarin were examined with the previously reported ultrafiltration method.[17], [18] Briefly, samples contained warfarin (1 μM) and HSA (5 μM) without or with flavonoids (20 μM) in PBS (pH 7.4). After two washing steps of the filters (Amicon Ultra‐0.5 Centrifugal Filter Units, 30 kDa molecular weight cut‐off; Merck, Darmstadt, Germany) with water then PBS (both 500 μL), samples (500 μL) were centrifuged for 10 min (7500 g, 25°C, fixed angle rotor).
Warfarin was quantified using an HPLC system (Jasco, Tokyo, Japan) with an autosampler (AS‐4050), a binary pump (PU‐4180), a fluorescence detector (Jasco FP‐920), and the ChromNAV2 software. The concentrations of warfarin in the filtrate were directly determined by applying the previously described method.[17], [18] […] The fluorescence detection of warfarin was carried out at 310 and 390 nm excitation and emission wavelengths, respectively.

In data set [2] the test system is T1, human serum albumin (HSA). Description: Fluorescence quenching of HSA by flavonoids (Stern–Volmer and modified Stern–Volmer). It counts as binding. The conditions noted are these: for albumin‐bound fraction: estimated from K, 1:1 stoichiometry, 1 μM flavonoid, 600 μM HSA (≈ 40 g/L). The procedure: Fluorescence spectroscopic measurements were performed in phosphate‐buffered saline (PBS, pH 7.4) at room temperature, using a Hitachi F‐4500 spectrofluorometer (Tokyo, Japan). Increasing amounts of flavonoids (final concentrations: 0, 1, 2, 3, 4, 5, and 6 μM) were added to HSA (2 μM), after which fluorescence emission spectra were collected (λ ex = 295 nm). UV–Vis spectra of MYR, M3′S, AMP, and A4′S were also recorded, and their inner‐filter effects were corrected as it has been reported.[37], [38] Flavonoid–HSA interactions were evaluated based on the graphical application of the Stern–Volmer equation[18], [39]: (1) I0/I=1+KSV×Q where K SV is the Stern–Volmer quenching constant, I 0 denotes the emission intensity of HSA alone at 340 nm, I marks the emission signal of albumin at 340 nm in the presence of flavonoids, while [Q] is the molar concentration of the quencher. Thereafter, binding constants (K) of the formed complexes were determined based on the modified Stern–Volmer equation[39], [40]: (2) I0/I0−I=1/fa×K×1/Q+1/fa where f a is the fraction of the accessible fluorophore.
Using the binding/association constants and assuming 1:1 stoichiometry of complex formation, we estimated the bound fractions of M3′S and A4′S in the circulation based on the following equation[41]: (3) K=FH/F×HSA where [F], [HSA], and [FH] are the molar concentrations of the unbound free flavonoid, the unbound free HSA, and the flavonoid–HSA complex, respectively. In these calculations, we hypothesized the presence of 1.0 μM levels of M3′S or A4′S in the presence of 600 μM (≈ 40 g/L) of HSA.

On the set-up of data set [3]: method as in PMID 26032587. The note with it: double‐blind randomized controlled clinical trial; cited from earlier work.
The target in a further data set is T2, OATP2B1 (Homo sapiens, UniProt O94956).
T2 construct: expressed in transfected cells; host or cells: A431
T2 sequence (O94956 1-709): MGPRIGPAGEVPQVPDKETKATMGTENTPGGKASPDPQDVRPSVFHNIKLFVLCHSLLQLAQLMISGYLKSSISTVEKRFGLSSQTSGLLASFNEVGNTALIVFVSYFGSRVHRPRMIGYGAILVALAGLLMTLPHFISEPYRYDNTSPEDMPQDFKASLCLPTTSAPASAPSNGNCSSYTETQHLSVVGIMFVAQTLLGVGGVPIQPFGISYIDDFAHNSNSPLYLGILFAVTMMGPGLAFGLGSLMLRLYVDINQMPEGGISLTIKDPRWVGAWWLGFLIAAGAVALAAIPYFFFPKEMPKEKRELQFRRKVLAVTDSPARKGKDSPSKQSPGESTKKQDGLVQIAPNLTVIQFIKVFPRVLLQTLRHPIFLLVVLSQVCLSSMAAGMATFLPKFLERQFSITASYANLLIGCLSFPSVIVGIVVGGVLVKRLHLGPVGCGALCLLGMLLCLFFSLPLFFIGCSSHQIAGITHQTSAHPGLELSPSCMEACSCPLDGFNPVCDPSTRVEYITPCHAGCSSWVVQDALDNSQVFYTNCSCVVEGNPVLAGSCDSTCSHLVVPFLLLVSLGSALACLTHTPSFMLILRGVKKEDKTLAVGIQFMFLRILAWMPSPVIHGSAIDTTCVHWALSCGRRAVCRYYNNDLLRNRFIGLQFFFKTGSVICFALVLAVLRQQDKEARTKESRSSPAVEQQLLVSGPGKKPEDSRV
The data set is described as follows: Inhibition of OATP2B1-mediated pyranine uptake in A431 cells. The conditions noted are these: for inhibition at 15 min, 25 μM: human, A431 cells overexpressing OATP2B1, pH 5.5, probe pyranine, 20 μM, read-out: inhibition / reduction of OATP2B1 transport activity; for inhibition at 15 min, 25 μM / inhibition of OATP2B1 in words: 25 μM flavonoid; for pIC50: 15 min, uptake buffer pH 5.5, A431-OATP2B1 cells; for inhibitory strength on OATP2B1 relative to A4′S: ratio of IC50 values. Format: cell-based. Here is the method: Human A431 cells overexpressing OATPs (OATP1B1 or OATP2B1) and their mock‐transfected controls were established earlier.[42], [43] The cells were maintained at 37°C with 5% CO2 in Dulbecco's Modified Eagle Medium (DMEM; Thermo Fischer Scientific, Waltham, MA, USA) supplemented with fetal bovine serum (10%), L‐glutamine (2 mM), penicillin (100 units/mL) and streptomycin (100 μg/mL).
The inhibitory impacts of MYR, AMP, and their sulfate metabolites on OATP1B1 and OATP2B1 were examined using the fluorescent dye substrates disulfopyrene (6,8‐dihydroxy‐1,3‐disulfopyrene) and pyranine, respectively.[42], [43] The day before the transport measurements, A431 cells overexpressing OATP1B1 or OATP2B1 (and their mock‐transfected controls) were seeded onto 96‐well plates at a density of 80 000 cells/well in DMEM (200 μL). Next day, the medium was removed, the cells were washed three times with PBS (pH 7.4, 200 μL) at room temperature, then the cells were pre‐incubated with 50 μL of Hank's Balanced Salt Solution (HBSS, pH 7.4; OATP1B1) or uptake buffer (pH 5.5; OATP2B1) for 5 min at 37°C with or without the flavonoids.[43] The transport reaction was started by adding 50 μL of disulfopyrene‐containing (final concentration: 10 μM) HBSS (OATP1B1 assay), or pyranine‐containing (final concentration: 20 μM) uptake buffer (OATP2B1 assay). After 10 min (OATP1B1) or 15 min (OATP2B1), the transport was stopped by removing the supernatant and washing the cells three times with ice‐cold PBS (200 μL). Then the fluorescence was measured in 200 μL of PBS using an Enspire plate reader (PerkinElmer, Waltham, MA, US) at excitation and emission wavelengths of 460/510 nm. OATP‐dependent transport was determined by subtracting the fluorescence detected in mock control cells from that of OATP‐expressing cells. Transport activity was measured based on the fluorescence signal in the absence of flavonoids (100%).

The conditions of data set [4]: cited from earlier work.
[5] abbreviates: pyranine 20 μM, read-out: IC50, OATP2B1.

For `O=C1c2c(O)cc(O)cc2O[C@H](c2cc(O)c(O)c(O)c2)[C@H]1O` [AMP, ampelopsin], the “effect on the filtered fraction of warfarin” value in data set [1] is “not affected”. Further, the “binding constant (K) of flavonoid–HSA complex” value in data set [2] (modified Stern–Volmer equation, HSA 2 μM, flavonoid 0–6 μM, PBS pH 7.4, λex 295 nm, λem 340 nm) was 5.5 × 10^4 L/mol and ≈ 10^4 L/mol. Also, the “effect in patients with nonalcoholic fatty liver disease” value in data set [3] is “improved glucose and lipid metabolism”. For the same molecule, on OATP2B1, the inhibition at 15 min, 25 μM is around 70%. Moreover, the oral bioavailability entry in data set [4] (AMP, rat studies) is recorded as “approximately 4%”. In data set [4] (rats, peroral 100 mg/kg AMP), the “peak plasma concentrations of the aglycone” value is 300 to 500 nM.
For the molecule `O=c1c(O)c(-c2cc(O)c(O)c(O)c2)oc2cc(O)cc(O)c12` [MYR, myricetin], the “effect on the filtered fraction of warfarin” value in data set [1] is “moderate increases”. In addition, at OATP2B1, the “inhibition of OATP2B1 in words” value is on record as “almost completely blocked” and the “inhibitory strength on OATP2B1 relative to A4′S” value is listed as “five‐fold”. Further, the pIC50 – broadly, −log10 of the IC50, conventionally taken in molar units – on OATP2B1 (IC50, OATP2B1, pyranine 20 μM) was 6.37 and 6.40. Moreover, the oral bioavailability result in data set [4] (MYR, rats) was “less than 10%”. The “peak plasma concentrations of MYR and its (sulfate and glucuronide) metabolites together” value in data set [4] (rats, per os 100 mg/kg MYR) is 8 µM.
For `O=c1c(O)c(-c2cc(O)c(O)c(OS(=O)(=O)O)c2)oc2cc(O)cc(O)c12` [M3′S, myricetin‐3′‐O‐sulfate], the “effect on the filtered fraction of warfarin” value in data set [1] is “moderate increases”. Besides, in data set [2], the “albumin‐bound fraction” value is reported as “exceeds 99%”. On OATP2B1, the “inhibition of OATP2B1 in words” value is given as “almost completely blocked” and the “inhibitory strength on OATP2B1 relative to A4′S” value was “seven‐fold”. The pIC50 at OATP2B1 (setting [5]) is 6.54 and 6.52.
Consider `O=C1c2c(O)cc(O)cc2OC(c2cc(O)c(OS(=O)(=O)O)c(O)c2)C1O` (stereo not drawn) [A4′S, ampelopsin‐4′‐O‐sulfate], for which, in data set [1], the “effect on the filtered fraction of warfarin” value was “not affected”. Besides, the “albumin‐bound fraction” value in data set [2] was around 94%. Moreover, the inhibition at 15 min, 25 μM at OATP2B1 was 90%. Moreover, the negative logarithm of the IC50 (pIC50) at OATP2B1 (setting [5]) is 5.67 and 5.66.
